According to US12692221B2 (priority 2024, dated 2026):

What was measured:
[1] = molecular target: T1, D1 (h) (Homo sapiens, UniProt P21728); experiment: Radioligand binding D1 (h) (antagonist radioligand), [^3H]SCH 23390, CHO cells
T1 construct: expressed in transfected cells; host or cells: CHO cells
Protocol: (§1) Methods—Binding Assays: In vitro binding assays were performed using human recombinant receptors expressed in mammalian cell lines. Receptors were expressed in either HEK-293 or CHO cells depending on the target, and assay conditions (radioligand, concentration, nonspecific competitor, temperature, and incubation time) were optimized for each receptor. All assays were conducted in triplicate, and specific binding was quantified by scintillation counting as the detection method for each listed assay.
(§2) Specific binding was expressed as a percentage of control-specific binding, and percent inhibition was calculated using the formula in Ex. 8 above. Half-maximal inhibitory concentrations (IC50) were determined by non-linear regression analysis of the inhibition curves using the Hill equation (see Ex. 8). Inhibition constants (Ki) were calculated using the Cheng-Prusoff equation (see Ex. 8). KD values used in these calculations had been previously established for each receptor under the assay conditions (see Table 6). Data analysis was performed using software developed at Cerep and validated against SigmaPlot 4.0 for Windows.

[2] = molecular target: T2, AR (h) (Homo sapiens, UniProt P10275, T878A); experiment: Radioligand binding AR (h) (agonist radioligand), [^3H]methyltrienolone, LNCaP cells
T2 construct: human endog; endogenous in cells; host or cells: LNCaP cells
T2 sequence (P10275 1-920 T878A): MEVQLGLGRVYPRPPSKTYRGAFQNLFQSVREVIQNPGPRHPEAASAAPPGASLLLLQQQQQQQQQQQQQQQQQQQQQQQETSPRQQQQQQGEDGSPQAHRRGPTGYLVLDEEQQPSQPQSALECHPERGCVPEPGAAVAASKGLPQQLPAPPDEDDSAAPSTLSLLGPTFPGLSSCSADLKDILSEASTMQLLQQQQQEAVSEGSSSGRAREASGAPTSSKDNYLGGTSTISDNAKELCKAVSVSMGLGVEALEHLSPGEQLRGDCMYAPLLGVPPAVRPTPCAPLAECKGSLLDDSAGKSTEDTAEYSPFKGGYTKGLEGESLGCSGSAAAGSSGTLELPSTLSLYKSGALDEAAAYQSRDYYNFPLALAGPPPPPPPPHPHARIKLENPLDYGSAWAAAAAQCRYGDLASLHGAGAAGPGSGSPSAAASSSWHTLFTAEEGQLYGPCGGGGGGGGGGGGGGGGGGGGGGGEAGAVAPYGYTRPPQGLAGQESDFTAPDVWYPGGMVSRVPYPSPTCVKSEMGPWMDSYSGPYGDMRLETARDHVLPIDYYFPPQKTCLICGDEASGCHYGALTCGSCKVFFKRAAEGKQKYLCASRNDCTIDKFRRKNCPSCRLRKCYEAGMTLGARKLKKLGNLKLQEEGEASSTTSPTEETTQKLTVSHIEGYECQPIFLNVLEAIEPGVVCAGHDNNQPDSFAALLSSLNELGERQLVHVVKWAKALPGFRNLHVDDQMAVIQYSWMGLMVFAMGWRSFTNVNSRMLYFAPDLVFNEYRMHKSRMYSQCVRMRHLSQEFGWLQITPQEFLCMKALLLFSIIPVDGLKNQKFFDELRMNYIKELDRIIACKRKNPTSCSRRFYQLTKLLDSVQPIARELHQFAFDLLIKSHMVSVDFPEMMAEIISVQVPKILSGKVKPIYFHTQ

[3] = molecular target: T3, V1a (h) (Homo sapiens, UniProt P37288); experiment: Radioligand binding V1a (h) (agonist radioligand), [^3H]AVP, CHO cells
T3 construct: expressed in transfected cells; host or cells: CHO cells
Protocol: as §1, §2

[4] = test system: NMDA; experiment: Radioligand binding NMDA (antagonist radioligand), [^3H]CGP 39653, rat cerebral cortex
[5] = molecular target: 5-HT2B (Homo sapiens, UniProt P41595); experiment: IP-One HTRF IP-1 accumulation functional assay, 5-HT2B/HEK293; format: cell-based; set-up: host or cells: HEK293
Protocol: Methods (5-HT2B IP-One Functional Activity Assays): Intracellular accumulation of IP-1 was measured using an IP-One HTRF) assay kit (Cat. #62IPAPEJ, Cisbio) at WuXi AppTec Co. Ltd. (Hong Kong) Discovery Biology Unit according to their standard protocols. Briefly, 5-HT2B/HEK293 were plated in a 384-well plate and incubated at 37° C. and 5% CO2 overnight. The reference compounds and screening compounds were 3.16-fold serially diluted in 100% DMSO for 10 points using Bravo. 70 nL of compounds were added to the cell plate using Echo555. Incubated for 60 minutes at 37° C. Added 3 μL of IP-1 d2 Reagent working solution and 3 μL of IP-1 Tb Cryptate Antibody working solution to all wells. The plates were incubated for 1 hour at room temperature and read on for fluorescence at 620 nm and 665 nm on an EnVision Multimode Plate Reader (PerkinElmer). The ratio of the acceptor and donor emission signals (665/620) were calculated for each individual well and substituted into the standard curve to obtain the log concentration of IP level. After converting to the antilog base IP-1, the average background control signal was subtracted from each well and values were normalized to the maximal response of 5-HT at 3 μM (100%). % MAX was calculated by taking the average normalized maximal response at the highest concentration tested. Data were analyzed using the four-parameter nonlinear regression curve-fitting function in GraphPad Prism 5 (GraphPad Software, San Diego, CA) to generate potency (EC50) values. Parameter constraint “Top=100” was used in the analysis of 5-HT2B IP-1. Represented plots show normalized IP-1 values versus compound concentrations; the corresponding numerical data are parameter estimates for the concentration-response curve using the 4-parameter nonlinear regression curve-fitting function in GraphPad Prism 10. “Top=100” parameter constraint was not enabled for the represented plot analysis.

Chain of 5-HT2B (P41595 whole entry): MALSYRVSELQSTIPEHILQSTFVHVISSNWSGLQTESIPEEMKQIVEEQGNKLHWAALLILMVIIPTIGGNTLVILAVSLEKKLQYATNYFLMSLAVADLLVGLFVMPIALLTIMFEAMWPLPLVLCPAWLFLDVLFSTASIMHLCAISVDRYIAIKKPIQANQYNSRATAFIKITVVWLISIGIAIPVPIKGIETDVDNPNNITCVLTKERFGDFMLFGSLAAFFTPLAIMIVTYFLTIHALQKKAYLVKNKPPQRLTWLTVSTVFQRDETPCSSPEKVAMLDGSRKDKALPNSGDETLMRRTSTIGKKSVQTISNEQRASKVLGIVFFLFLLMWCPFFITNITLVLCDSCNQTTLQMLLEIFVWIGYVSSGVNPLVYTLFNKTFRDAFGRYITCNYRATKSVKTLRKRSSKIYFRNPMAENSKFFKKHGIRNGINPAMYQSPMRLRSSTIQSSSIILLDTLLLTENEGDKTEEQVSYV
T3 sequence (P37288 whole entry): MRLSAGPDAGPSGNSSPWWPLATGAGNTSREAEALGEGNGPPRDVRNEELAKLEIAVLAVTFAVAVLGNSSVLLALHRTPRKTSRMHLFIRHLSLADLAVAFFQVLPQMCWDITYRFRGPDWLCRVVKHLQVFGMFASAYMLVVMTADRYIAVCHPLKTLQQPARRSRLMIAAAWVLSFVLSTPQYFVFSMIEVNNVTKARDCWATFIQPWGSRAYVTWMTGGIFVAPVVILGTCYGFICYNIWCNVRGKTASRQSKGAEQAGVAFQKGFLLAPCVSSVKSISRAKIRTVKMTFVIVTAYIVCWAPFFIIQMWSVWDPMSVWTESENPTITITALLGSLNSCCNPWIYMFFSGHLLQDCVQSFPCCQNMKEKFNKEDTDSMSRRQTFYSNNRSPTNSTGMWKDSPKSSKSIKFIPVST
T1 sequence (P21728 whole entry): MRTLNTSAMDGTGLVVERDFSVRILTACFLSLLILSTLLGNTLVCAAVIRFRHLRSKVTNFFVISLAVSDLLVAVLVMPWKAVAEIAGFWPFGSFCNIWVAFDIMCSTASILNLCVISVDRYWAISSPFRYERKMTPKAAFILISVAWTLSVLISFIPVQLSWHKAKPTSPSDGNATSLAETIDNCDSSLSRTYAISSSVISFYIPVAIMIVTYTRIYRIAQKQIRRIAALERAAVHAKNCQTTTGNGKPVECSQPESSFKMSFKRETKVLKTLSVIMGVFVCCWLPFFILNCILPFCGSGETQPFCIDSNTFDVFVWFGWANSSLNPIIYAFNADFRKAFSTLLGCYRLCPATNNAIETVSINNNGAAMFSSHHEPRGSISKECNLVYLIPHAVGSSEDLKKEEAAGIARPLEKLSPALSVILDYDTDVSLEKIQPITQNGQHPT

Compound	Mean Percent Inhibition of Control Specific Binding [1]	Mean Percent Inhibition of Control Specific Binding [2]	Mean Percent Inhibition of Control Specific Binding [3]	Mean Percent Inhibition of Control Specific Binding [4]	EC50 [5]
COCc1cc(CCN)c(O)cc1CC(C)C [2CiBu-2OH-5MM, 2-(2-aminoethyl)-5-isobutyl-4-(methoxymethyl)phenol]	4.0%	−9.9%	4.8%	−24.3%	–
COCCc1cc(CCN)c(OC)cc1Br [Compound 2CB-5ME, reference compound]	28.1%	−7.7%	11.2%	3.5%	131 nM
COCc1cc(CCN)c(OC)cc1Br [Compound 2CB-5MM, 2-(4-bromo-2-methoxy-5-(methoxymethyl)phenyl)ethan-1-amine]	21.1%	−9.2%	5.5%	4.7%	78.6 nM
COCc1cc(CCN)c(OC)cc1CC(C)C [Compound 2CiBu-5MM, 2-[4-isobutyl-2-methoxy-5-(methoxymethyl)phenyl]ethanamine]	−1.4%	3.0%	5.3%	12.0%	825 nM
